Results on 14 compounds are retold here after patent US12421230B2, “Tricyclic heteroaryl compounds useful as IRAK4 inhibitors” (BRISTOL-MYERS SQUIBB COMPANY, priority 2020, dated 2025).

This experiment has as its target T1, IRAK4 (Homo sapiens, UniProt Q9NWZ3).
T1 sequence (Q9NWZ3 1-460): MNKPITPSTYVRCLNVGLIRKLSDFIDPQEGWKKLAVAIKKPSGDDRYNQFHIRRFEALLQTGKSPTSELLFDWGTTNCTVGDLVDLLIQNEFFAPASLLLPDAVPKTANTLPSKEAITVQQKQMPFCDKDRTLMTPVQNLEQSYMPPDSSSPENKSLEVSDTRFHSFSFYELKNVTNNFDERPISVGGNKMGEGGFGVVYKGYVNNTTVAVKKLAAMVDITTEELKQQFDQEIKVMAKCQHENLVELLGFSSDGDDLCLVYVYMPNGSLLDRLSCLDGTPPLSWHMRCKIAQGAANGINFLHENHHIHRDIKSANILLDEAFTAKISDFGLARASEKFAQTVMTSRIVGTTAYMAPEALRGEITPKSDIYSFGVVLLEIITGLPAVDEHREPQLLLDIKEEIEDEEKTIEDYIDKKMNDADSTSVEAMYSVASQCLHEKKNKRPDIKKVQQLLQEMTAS
Kind of experiment: IRAK4 Inhibition Assay. It is filed as biochemical. The note with it: ATP 500 μM; fluoresceinated peptide 1.5 μM; IRAK4 0.6 nM; 60 min room temperature; Caliper LABCHIP. How it is done:
The assays were performed in U-bottom 384-well plates. The final assay volume was 30 μL prepared from 15 μL additions of enzyme and substrates (fluoresceinated peptide and ATP) and test compounds in assay buffer (20 mM HEPES pH 7.2, 10 mM MgCl2, 0.015% Brij 35 and 4 mM DTT). The reaction was initiated by the combination of IRAK4 with substrates and test compounds. The reaction mixture was incubated at room temperature for 60 min. and terminated by adding 45 μL of 35 mM EDTA to each sample. The reaction mixture was analyzed on the Caliper LABCHIP® 3000 (Caliper, Hopkinton, MA) by electrophoretic separation of the fluorescent substrate and phosphorylated product. Inhibition data were calculated by comparison to no enzyme control reactions for 100% inhibition and vehicle-only reactions for 0% inhibition. The final concentrations of reagents in the assays are ATP, 500 μM; FL-IPTSPITTTYFFFKKK peptide 1.5 μM; IRAK4, 0.6 nM; and DMSO, 1.6%.

In general, IC50 refers to the concentration needed to halve the response being measured. For `COc1ccc(CNc2c(C(=O)NCCC(C)(C)O)cnc3c2[nH]c2cc(C#N)ccc23)cc1OC` [Example 56, 7-cyano-4-((3,4-dimethoxybenzyl)amino)-N-(3-hydroxy-3-methylbutyl)-5H-pyrido[3,2-b]indole-3-carboxamide], the IC50 stood at 510 nM.

Consider `CC(C)Nc1c(C(=O)NCCC2CC2)cnc2[nH]c3ccc(C#N)cc3c12` [Example 82, 6-cyano-N-(2-cyclopropylethyl)-4-(isopropylamino)-9H-pyrido[2,3-b]indole-3-carboxamide], for which the IC50 worked out at 650 nM.

With `CC(C)Nc1c(C(=O)N[C@H]2C[C@H](N)C2)cnc2c1[nH]c1cc(C#N)ccc12` [Example 47, N-((1R,3R)-3-aminocyclobutyl)-7-cyano (isopropylamino)-5H-pyrido[3,2-b]indole-3-carboxamide], the IC50 came to 40 nM.

Regarding `CC(=O)N[C@H]1C[C@H](NC(=O)c2cnc3c([nH]c4cc(C#N)ccc43)c2NC(C)C)C1` [Example 49, N-((1R,3R)-3-acetamidocyclobutyl)-7-cyano-4-(isopropylamino)-5H-pyrido[3,2-b]indole-3-carboxamide], the IC50 stood at 22 nM.

For the compound `CC(C)Nc1c(C(=O)NC(CCO)C2CC2)cnc2c1[nH]c1cc(C#N)ccc12` (centres unmarked) [Example 16, 7-cyano-N-(1-cyclopropyl-3-hydroxypropyl)-4-(isopropylamino)-5H-pyrido[3,2-b]indole-3-carboxamide], the IC50 stood at 310 nM.

Turning to `CC(C)Nc1c(C(=O)NCCC(C)(C)O)cnc2c1[nH]c1cc(C(N)=O)ccc12` [Example 48, N3-(3-hydroxy-3-methylbutyl)-4-(isopropylamino)-5H-pyrido[3,2-b]indole-3,7-dicarboxamide], the IC50 is 240 nM.

Consider `CC(C)(O)CCNC(=O)c1cnc2c([nH]c3cc(C#N)ccc32)c1N[C@@H]1CCOC1` [Example 26, (R)-7-cyano-N-(3-hydroxy-3-methylbutyl)-4-((tetrahydrofuran-3-yl)amino)-5H-pyrido[3,2-b] indole-3-carboxamide], for which the IC50 came out at 33 nM.

Consider `N#Cc1ccc2c(c1)[nH]c1c(NC3COC3)c(C(=O)NCCC(F)(F)F)cnc12` [Example 42, 7-cyano-4-(oxetanylamino)-N-(3,3,3-trifluoropropyl)-5H-pyrido[3,2-b]indole-3-carboxamide], for which the IC50 turned out to be 24 nM.

On to `CC(C)Nc1c(C(=O)N[C@H]2C[C@@H](O)C2)cnc2c1[nH]c1cc(C#N)ccc12` [Example 24, 7-cyano-N-((1s,3s)-3-hydroxycyclobutyl)-4-(isopropylamino)-5H-pyrido[3,2-b]indole-3-carboxamide], for which the IC50 was 120 nM.

In the case of `CC(C)(O)CCNC(=O)c1cnc2c([nH]c3cc(C#N)ccc32)c1N[C@H]1CCOC1` [Example 28, (S)-7-cyano-N-(3-hydroxy-3-methylbutyl)-4-((tetrahydrofuran-3-yl)amino)-5H-pyrido[3,2-b]indole-3-carboxamide], the IC50 stood at 48 nM.

Regarding `CCNc1c(C(=O)NCCC2CCCCN2)cnc2c1[nH]c1cc(C#N)ccc12` (centres unmarked) [Example 58, 7-cyano-4-(ethylamino)-N-(2-(piperidin-2-yl)ethyl)-5H-pyrido[3,2-b]indole-3-carboxamide], the IC50 worked out at 24 nM.

In the case of `CC(C)Nc1c(C(=O)NC[C@@H](F)C(C)(C)O)cnc2[nH]c3ccc(C#N)cc3c12` [Example 81, (R)-6-cyano-N-(2-fluoro-3-hydroxy-3-methylbutyl)-4-(isopropylamino)-9H-pyrido [2,3-b]indole-3-carboxamide], the IC50 is 170 nM.

In the case of `CC(C)CCn1cc(-c2cnc3c([nH]c4cc(C#N)ccc43)c2NC(C)C)nn1` [Example 73, 3-(1-isopentyl-1H-1,2,3-triazol-4-yl)-4-(isopropylamino)-5H-pyrido[3,2-b]indole-7-carbonitrile], the IC50 was 1.5 nM.

For `CC(C)Nc1c(C(=O)NCCC(C)(C)N)cnc2c1[nH]c1cc(C#N)ccc12` [Example 52, N-(3-amino-3-methylbutyl)-7-cyano-4-(isopropylamino)-5H-pyrido[3,2-b]indole-3-carboxamide], the IC50 worked out at 3.3 nM.
